Literature values as cited in US9095555B2, “Cannabinoid formulations” (FULL SPECTRUM LABORATORIES LIMITED, priority 2011, dated 2015).

Columns and labels:
[1] = prolonged contact with air, oxidation to cannabinol (CBN)

SMILES: CCCCCc1cc(O)c2c(c1)OC(C)(C)[C@@H]1CCC(C)=C[C@@H]21 [Dronabinol, Δ^9-tetrahydrocannabinol]
- Onset of therapeutic potency (after oral administration): 0.5 to 1 h
- Amount reaching the blood stream by absorption through the digestive system (oral): 10-20 % of the administered dose
- Peak therapeutic effect lasting (post administration, oral): 2 to 4 h
- Oxidation stability [1]: prone to oxidation
